In PMC4106133 (Journal of medicinal chemistry, 2013):

Key:
α4β2 nAChR [1] = molecular target: T1, α4β2 nAChR (Rattus norvegicus, UniProt P09483+P12390); assay: [3H]epibatidine binding to α4β2 nAChR in cell membranes; details: binding selectivity for α4β2 over α3β4
α4β2 nAChR [2] = molecular target: T1, α4β2 nAChR; assay: nAChR functional assay, membrane potential change; assay type: cell-based
α3β4 nAChR = α3β4 nAChR (Rattus norvegicus, UniProt P04757+P12392); assay: nAChR functional assay, membrane potential change; assay type: cell-based
α3β4α5 nAChR = assay: binding affinity against α3β4α5 nAChR

T1 sequence (P09483 31-630): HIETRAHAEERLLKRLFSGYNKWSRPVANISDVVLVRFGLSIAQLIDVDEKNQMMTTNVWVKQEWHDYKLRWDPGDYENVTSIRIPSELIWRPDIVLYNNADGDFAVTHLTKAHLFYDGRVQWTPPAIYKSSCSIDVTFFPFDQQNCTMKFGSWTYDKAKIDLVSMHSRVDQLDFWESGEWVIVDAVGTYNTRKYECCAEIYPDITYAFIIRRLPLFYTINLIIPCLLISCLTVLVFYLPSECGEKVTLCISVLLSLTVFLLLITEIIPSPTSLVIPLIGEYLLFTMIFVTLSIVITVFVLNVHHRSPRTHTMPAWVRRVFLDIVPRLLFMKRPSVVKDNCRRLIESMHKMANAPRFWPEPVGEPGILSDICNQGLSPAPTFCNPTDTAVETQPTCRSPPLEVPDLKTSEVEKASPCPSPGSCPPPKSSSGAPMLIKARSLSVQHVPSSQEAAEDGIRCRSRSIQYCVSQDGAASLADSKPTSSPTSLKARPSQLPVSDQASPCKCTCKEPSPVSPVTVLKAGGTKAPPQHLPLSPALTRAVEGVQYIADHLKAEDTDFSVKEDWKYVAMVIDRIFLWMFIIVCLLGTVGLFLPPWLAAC
T1 sequence (P12390 25-500): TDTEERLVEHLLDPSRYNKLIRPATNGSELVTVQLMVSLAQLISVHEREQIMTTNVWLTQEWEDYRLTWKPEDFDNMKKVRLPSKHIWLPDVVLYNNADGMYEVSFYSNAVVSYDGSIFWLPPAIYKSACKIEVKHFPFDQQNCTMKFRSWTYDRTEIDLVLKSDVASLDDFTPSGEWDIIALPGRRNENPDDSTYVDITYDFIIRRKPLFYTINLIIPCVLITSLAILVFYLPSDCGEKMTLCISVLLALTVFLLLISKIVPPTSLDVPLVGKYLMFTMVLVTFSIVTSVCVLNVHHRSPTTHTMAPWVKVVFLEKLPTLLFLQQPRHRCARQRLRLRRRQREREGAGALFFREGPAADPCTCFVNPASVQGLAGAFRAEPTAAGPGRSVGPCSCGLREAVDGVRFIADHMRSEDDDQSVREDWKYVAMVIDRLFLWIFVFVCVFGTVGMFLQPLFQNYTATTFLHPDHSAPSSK
Sequence of α3β4 nAChR (P04757 26-499): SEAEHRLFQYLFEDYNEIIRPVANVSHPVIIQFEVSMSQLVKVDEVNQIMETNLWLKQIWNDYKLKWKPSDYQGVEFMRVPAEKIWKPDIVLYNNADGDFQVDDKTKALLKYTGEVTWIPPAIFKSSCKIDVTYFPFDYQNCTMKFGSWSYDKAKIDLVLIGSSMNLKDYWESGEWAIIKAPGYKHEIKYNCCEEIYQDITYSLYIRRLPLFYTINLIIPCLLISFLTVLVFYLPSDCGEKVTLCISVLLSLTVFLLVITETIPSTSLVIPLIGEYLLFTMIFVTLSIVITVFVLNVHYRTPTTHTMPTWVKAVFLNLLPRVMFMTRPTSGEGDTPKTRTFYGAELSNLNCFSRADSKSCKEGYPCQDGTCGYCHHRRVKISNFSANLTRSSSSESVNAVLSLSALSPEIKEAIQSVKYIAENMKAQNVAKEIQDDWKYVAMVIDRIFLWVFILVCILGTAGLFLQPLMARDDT
Sequence of α3β4 nAChR (P12392 21-495): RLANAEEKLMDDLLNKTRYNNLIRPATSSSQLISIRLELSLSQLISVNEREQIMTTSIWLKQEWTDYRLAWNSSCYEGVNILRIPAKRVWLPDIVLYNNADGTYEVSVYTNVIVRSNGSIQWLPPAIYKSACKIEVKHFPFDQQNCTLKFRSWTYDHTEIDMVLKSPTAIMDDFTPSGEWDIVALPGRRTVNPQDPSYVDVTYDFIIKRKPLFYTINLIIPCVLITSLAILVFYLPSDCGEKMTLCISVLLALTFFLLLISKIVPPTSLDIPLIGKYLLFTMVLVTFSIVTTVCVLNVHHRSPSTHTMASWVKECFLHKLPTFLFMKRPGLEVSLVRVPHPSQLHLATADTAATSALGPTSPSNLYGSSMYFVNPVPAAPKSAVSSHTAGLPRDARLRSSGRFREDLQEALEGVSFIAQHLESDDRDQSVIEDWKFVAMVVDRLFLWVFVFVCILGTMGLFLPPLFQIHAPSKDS

Row | Structure (SMILES) | selectivity (fold) (α3β4 Ki/α4β2 Ki) (α4β2 nAChR [1]) | agonist activity at α4β2 nAChR (α4β2 nAChR [2]; membrane potential change, HEK cells, up to 10 µM) | mode of inhibition of nicotine's activity (α4β2 nAChR [2]; nicotine dose response curves with various concentrations of 301) | inverse agonist activity (α4β2 nAChR [2]; α4β2-containing cells, very high concentrations) | IC50 (α3β4 nAChR) | agonist activity at α3β4 nAChR (α3β4 nAChR; membrane potential change, HEK cells) | binding affinity Kd/Ki against α3β4α5 nAChR (α3β4α5 nAChR) | Emax (α4β2 nAChR [2]; HEK293, read-out: nicotine maximum stimulation)
1 | CC(C)(C)C1CCC(CN2C(=N)N(CCCC[C@H]3CNC(=N)N3CCc3cccnc3)C[C@H]2Cc2ccccc2)CC1 (stereo partly drawn) [Compound 301, (R)-4-Benzyl-3-((4-tert-butylcyclohexyl)methyl)-1-(4-((S)-2-imino-3-(2-(pyridin-3-yl)ethyl)imidazolidin-4-yl)butyl)imidazolidin-2-imine] | ~500 fold | no agonist activity | noncompetitive | potential inverse agonist activity | > 10 µM | no agonist activity | 9.062 µM | –
2 | CN1CCC[C@H]1c1cccnc1 [nicotine, reference compound] | – | – | – | – | – | – | – | 100%
